Data on five compounds can be found in patent EP4806911A1, “TRIPLE AGONIST COMPOUND” (Chengdu Aoda Biotechnology Co., Ltd, priority 2023, dated 2025).

Each structure is given as a SMILES string.

Assay type in all cases: cell-based
For one test, the target named is T1, GCG-R (Homo sapiens, UniProt P47871).
T1 construct: expressed in transfected cells; host or cells: CHO-K1
As to the kind of experiment: GCG activity test (cAMP, chemiluminescence). The following applies: CHO-K1 cell line stably expressing GCG-R; relative luminescence units; read-out: GCG [EC50(pmol)]. On the procedure: (§1) Upon stimulation by a specific agonist, GCG-R activates the intracellular adenylate cyclase signaling pathway, resulting in an increase in cAMP levels and ultimately leading to […]. A cell line stably transfected with GCG-R was stimulated with test compounds, thereby rapidly increasing intracellular cAMP levels. The relative luminescence units (RLU) of cells stimulated at various concentrations were measured by a chemiluminescence method, and the EC50 value of the agonist was calculated accordingly. This activity assay method is currently a commonly used method for evaluating GCG receptor agonist activity both domestically and internationally. A CHO-K1 cell line stably expressing GCG-R was used. The stable cells were stimulated with agonists at different concentrations, and the relative luminescence units after stimulation at each concentration were measured to calculate the EC50 value of the agonist.

The target in another test is T2, GIPR (Homo sapiens, UniProt P48546).
T2 construct: expressed in transfected cells; host or cells: CHO-K1
T2 sequence (P48546 22-466): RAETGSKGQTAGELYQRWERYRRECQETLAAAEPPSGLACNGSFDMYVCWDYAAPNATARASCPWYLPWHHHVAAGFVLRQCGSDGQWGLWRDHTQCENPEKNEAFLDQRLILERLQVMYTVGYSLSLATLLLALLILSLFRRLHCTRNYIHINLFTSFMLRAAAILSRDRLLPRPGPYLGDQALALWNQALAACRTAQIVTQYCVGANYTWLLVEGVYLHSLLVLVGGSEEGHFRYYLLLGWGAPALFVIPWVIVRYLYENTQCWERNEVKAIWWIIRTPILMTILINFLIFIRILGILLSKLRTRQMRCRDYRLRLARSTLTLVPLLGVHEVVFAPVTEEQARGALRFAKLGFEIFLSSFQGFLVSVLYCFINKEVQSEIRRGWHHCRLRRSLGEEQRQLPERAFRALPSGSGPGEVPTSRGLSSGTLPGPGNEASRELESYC
As to the kind of experiment: GIP activity test (cAMP, chemiluminescence). The following applies: CHO-K1 cell line stably expressing GIPR; relative luminescence units; read-out: GIP [EC50(pmol)]. The procedure: as §1, with “GIPR” for “GCG-R”, “GIP” for “GCG”

Another test deals with T3, GLP-1R (Homo sapiens, UniProt P43220).
T3 construct: expressed in transfected cells; host or cells: CHO-K1
As to the kind of experiment: GLP-1 activity test (cAMP, chemiluminescence). The following applies: CHO-K1 cell line stably expressing GLP-1R; relative luminescence units; read-out: GLP-1 [EC50(pmol)]. The procedure:
as §1, with “GLP-1R” for “GCG-R”, “test” for “assay”, “GLP-1” for “GCG”

T3 sequence (P43220 24-463, species assumed): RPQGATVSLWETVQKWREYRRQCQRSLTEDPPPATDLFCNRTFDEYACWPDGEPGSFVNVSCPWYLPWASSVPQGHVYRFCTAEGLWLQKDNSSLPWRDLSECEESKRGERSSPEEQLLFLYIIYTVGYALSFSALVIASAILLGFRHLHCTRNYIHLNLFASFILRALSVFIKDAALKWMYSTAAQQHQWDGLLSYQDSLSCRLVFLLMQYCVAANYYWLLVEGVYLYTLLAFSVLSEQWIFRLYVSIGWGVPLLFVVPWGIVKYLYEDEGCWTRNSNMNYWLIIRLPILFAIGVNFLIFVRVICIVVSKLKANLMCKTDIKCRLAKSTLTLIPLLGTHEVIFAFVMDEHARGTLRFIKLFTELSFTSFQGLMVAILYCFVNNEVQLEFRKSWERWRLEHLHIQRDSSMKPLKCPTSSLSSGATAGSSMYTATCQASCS
T1 sequence (P47871 26-477, species assumed): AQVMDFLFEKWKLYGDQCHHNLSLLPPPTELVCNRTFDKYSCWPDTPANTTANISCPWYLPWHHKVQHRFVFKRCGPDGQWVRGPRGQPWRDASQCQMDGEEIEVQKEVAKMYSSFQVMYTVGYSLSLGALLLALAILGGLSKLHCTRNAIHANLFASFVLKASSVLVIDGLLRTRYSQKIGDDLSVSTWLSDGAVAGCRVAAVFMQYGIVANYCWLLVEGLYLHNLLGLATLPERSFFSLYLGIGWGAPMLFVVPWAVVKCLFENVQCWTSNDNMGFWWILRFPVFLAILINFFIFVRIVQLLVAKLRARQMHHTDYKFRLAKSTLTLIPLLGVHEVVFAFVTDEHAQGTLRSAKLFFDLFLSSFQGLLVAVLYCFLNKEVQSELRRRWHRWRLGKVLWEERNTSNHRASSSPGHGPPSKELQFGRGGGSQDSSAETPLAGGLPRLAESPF

`CC[C@H](C)[C@H](NC(=O)[C@H](Cc1ccccc1)NC(=O)[C@H](C)NC(=O)C(C)(C)NC(=O)[C@H](CCC(N)=O)NC(=O)[C@H](C)NC(=O)[C@H](CCCCNC(=O)COCCOCCNC(=O)CC[C@H](NC(=O)CCCCCCCCCCCCCCCCCCC(=O)O)C(=O)O)NC(=O)[C@H](CCCCN)NC(=O)[C@H](CC(=O)O)NC(=O)[C@H](CC(C)C)NC(=O)C(C)(CC(C)C)NC(=O)[C@@H](NC(=O)[C@H](CO)NC(=O)[C@H](Cc1ccc(O)cc1)NC(=O)[C@H](CC(=O)O)NC(=O)[C@H](CO)NC(=O)[C@@H](NC(=O)C(C)(Cc1ccccc1)NC(=O)[C@@H](NC(=O)CNC(=O)[C@H](CCC(N)=O)NC(=O)C(C)(C)NC(=O)[C@@H](N)Cc1ccc(O)cc1)[C@@H](C)O)[C@@H](C)O)[C@@H](C)CC)C(=O)N[C@@H](CCC(=O)O)C(=O)N[C@@H](Cc1ccc(O)cc1)C(=O)N[C@@H](CC(C)C)C(=O)N[C@@H](CC(C)C)C(=O)N[C@@H](CCC(=O)O)C(=O)NCC(=O)NCC(=O)N1CCC[C@H]1C(=O)N[C@@H](CO)C(=O)N[C@@H](CO)C(=O)NCC(=O)N[C@@H](C)C(=O)N1CCC[C@H]1C(=O)N1CCC[C@H]1C(=O)N1CCC[C@H]1C(=O)N[C@@H](CO)C(N)=O` (stereo partly drawn) [Compound 1]: the EC50 was 0.171 nM at GCG-R, 0.0226 nM at GIPR and 0.0502 nM on GLP-1R.

On to `CC[C@H](C)[C@H](NC(=O)[C@H](Cc1ccccc1)NC(=O)[C@H](C)NC(=O)C(C)(C)NC(=O)[C@H](CCC(N)=O)NC(=O)[C@H](C)NC(=O)[C@H](CCCCNC(=O)COCCOCCNC(=O)CC[C@H](NC(=O)CCCCCCCCCCCCCCCCCCC(=O)O)C(=O)O)NC(=O)[C@H](CCCCN)NC(=O)[C@H](CC(=O)O)NC(=O)[C@H](CC(C)C)NC(=O)C(C)(CC(C)C)NC(=O)[C@@H](NC(=O)[C@H](CO)NC(=O)[C@H](Cc1ccc(O)cc1)NC(=O)[C@H](CC(=O)O)NC(=O)[C@H](CO)NC(=O)[C@@H](NC(=O)C(C)(Cc1ccccc1F)NC(=O)[C@@H](NC(=O)CNC(=O)[C@H](CCC(N)=O)NC(=O)C(C)(C)NC(=O)[C@@H](N)Cc1ccc(O)cc1)[C@@H](C)O)[C@@H](C)O)[C@@H](C)CC)C(=O)N[C@@H](CCC(=O)O)C(=O)N[C@@H](Cc1ccc(O)cc1)C(=O)N[C@@H](CC(C)C)C(=O)N[C@@H](CC(C)C)C(=O)N[C@@H](CCC(=O)O)C(=O)NCC(=O)NCC(=O)N1CCC[C@H]1C(=O)N[C@@H](CO)C(=O)N[C@@H](CO)C(=O)NCC(=O)N[C@@H](C)C(=O)N1CCC[C@H]1C(=O)N1CCC[C@H]1C(=O)N1CCC[C@H]1C(=O)N[C@@H](CO)C(N)=O` (stereo partly drawn) [Compound 5], for which the EC50 came out at 0.138 nM at GCG-R, 0.0205 nM at GIPR and 0.0454 nM at GLP-1R.

In the case of `CC[C@H](C)[C@H](NC(=O)[C@H](Cc1ccccc1)NC(=O)[C@H](C)NC(=O)C(C)(C)NC(=O)[C@H](CCC(N)=O)NC(=O)[C@H](C)NC(=O)[C@H](CCCCNC(=O)COCCOCCNC(=O)COCCOCCNC(=O)CC[C@H](NC(=O)CCCCCCCCCCCCCCCCCCC(=O)O)C(=O)O)NC(=O)[C@H](CCCCN)NC(=O)[C@H](CC(=O)O)NC(=O)[C@H](CC(C)C)NC(=O)C(C)(CC(C)C)NC(=O)[C@@H](NC(=O)[C@H](CO)NC(=O)[C@H](Cc1ccc(O)cc1)NC(=O)[C@H](CC(=O)O)NC(=O)[C@H](CO)NC(=O)[C@@H](NC(=O)C(C)(Cc1ccccc1)NC(=O)[C@@H](NC(=O)CNC(=O)[C@H](CCC(N)=O)NC(=O)C(C)(C)NC(=O)[C@@H](N)Cc1ccc(O)cc1)[C@@H](C)O)[C@@H](C)O)[C@@H](C)CC)C(=O)N[C@@H](CCC(=O)O)C(=O)N[C@@H](Cc1ccc(O)cc1)C(=O)N[C@@H](CC(C)C)C(=O)N[C@@H](CC(C)C)C(=O)N[C@@H](CCC(=O)O)C(=O)NCC(=O)NCC(=O)N1CCC[C@H]1C(=O)N[C@@H](CO)C(=O)N[C@@H](CO)C(=O)NCC(=O)N[C@@H](C)C(=O)N1CCC[C@H]1C(=O)N1CCC[C@H]1C(=O)N1CCC[C@H]1C(=O)N[C@@H](CO)C(N)=O` (stereo partly drawn) [Compound 9], the EC50 on GCG-R is 0.186 nM; at GIPR, 0.0285 nM; on GLP-1R, 0.0612 nM.

`CC[C@H](C)[C@H](NC(=O)[C@H](Cc1ccccc1)NC(=O)[C@H](C)NC(=O)C(C)(C)NC(=O)[C@H](CCC(N)=O)NC(=O)[C@H](C)NC(=O)[C@H](CCCCNC(=O)COCCOCCNC(=O)COCCOCCNC(=O)CC[C@H](NC(=O)CCCCCCCCCCCCCCCCCCC(=O)O)C(=O)O)NC(=O)[C@H](CCCCN)NC(=O)[C@H](CC(=O)O)NC(=O)[C@H](CC(C)C)NC(=O)C(C)(CC(C)C)NC(=O)[C@@H](NC(=O)[C@H](CO)NC(=O)[C@H](Cc1ccc(O)cc1)NC(=O)[C@H](CC(=O)O)NC(=O)[C@H](CO)NC(=O)[C@@H](NC(=O)C(C)(Cc1ccccc1F)NC(=O)[C@@H](NC(=O)CNC(=O)[C@H](CCC(N)=O)NC(=O)C(C)(C)NC(=O)[C@@H](N)Cc1ccc(O)cc1)[C@@H](C)O)[C@@H](C)O)[C@@H](C)CC)C(=O)N[C@@H](CCC(=O)O)C(=O)N[C@@H](Cc1ccc(O)cc1)C(=O)N[C@@H](CC(C)C)C(=O)N[C@@H](CC(C)C)C(=O)N[C@@H](CCC(=O)O)C(=O)NCC(=O)NCC(=O)N1CCC[C@H]1C(=O)N[C@@H](CO)C(=O)N[C@@H](CO)C(=O)NCC(=O)N[C@@H](C)C(=O)N1CCC[C@H]1C(=O)N1CCC[C@H]1C(=O)N1CCC[C@H]1C(=O)N[C@@H](CO)C(N)=O` (stereo partly drawn) [Compound 11]: the concentration giving a half-maximal response (EC50) was determined as 0.166 nM on GCG-R, 0.027 nM on GIPR and 0.0536 nM on GLP-1R.

With `CC[C@H](C)[C@H](NC(=O)[C@H](Cc1ccccc1)NC(=O)[C@H](C)NC(=O)C(C)(C)NC(=O)[C@H](CCC(N)=O)NC(=O)[C@H](C)NC(=O)[C@H](CCCCNC(=O)COCCOCCNC(=O)CC[C@H](NC(=O)CCCCCCCCCCCCCCCCCCC(=O)O)C(=O)O)NC(=O)[C@H](CCCCN)NC(=O)[C@H](CC(=O)O)NC(=O)[C@H](CC(C)C)NC(=O)[C@](C)(CC(C)C)NC(=O)[C@@H](NC(=O)[C@H](CO)NC(=O)[C@H](Cc1ccc(O)cc1)NC(=O)[C@H](CC(=O)O)NC(=O)[C@H](CO)NC(=O)[C@@H](NC(=O)[C@H](Cc1ccccc1)NC(=O)[C@@H](NC(=O)CNC(=O)[C@H](CCC(N)=O)NC(=O)C(C)(C)NC(=O)[C@@H](N)Cc1ccc(O)cc1)[C@@H](C)O)[C@@H](C)O)[C@@H](C)CC)C(=O)N[C@@H](CCC(=O)O)C(=O)N[C@@H](Cc1ccc(O)cc1)C(=O)N[C@@H](CC(C)C)C(=O)N[C@@H](CC(C)C)C(=O)N[C@@H](CCC(=O)O)C(=O)NCC(=O)NCC(=O)N1CCC[C@H]1C(=O)N[C@@H](CO)C(=O)N[C@@H](CO)C(=O)NCC(=O)N[C@@H](C)C(=O)N1CCC[C@H]1C(=O)N1CCC[C@H]1C(=O)N1CCC[C@H]1C(=O)N[C@@H](CO)C(N)=O` [retatrutide, Retatrutide, reference compound], the results for the EC50 on GCG-R, at GIPR and on GLP-1R were 0.523 nM, 0.0342 nM and 0.046 nM, respectively.
